Test results reported in patent US8415376B2, “Inhibitors of PI3 kinase” (Amgen Inc., priority 2008, dated 2013).

How the values were obtained:
[1] = molecular target: T1, mTOR (Homo sapiens, UniProt P42345); assay: In vitro mTOR assay (Lanthascreen); assay type: biochemical; conditions: average if run more than once
T1 construct: purchased Invitrogen (Carlsbad, Calif.)
Source text: The Invitrogen (Carlsbad, Calif.) mammalian target of rapamycin (mTOR) Lanthascreen assay can be used to quantitate mTOR kinase activity in an in vitro setting. Active mTOR phosphorylates eukaryotic translation initiation factor 4E binding protein 1 (4E-BP1) on residue threonine 46. This phosphorylation event can be detected with a phospho-specific terbium (Tb) labeled Ab, in turn bringing the Tb label in close proximity to the GFP tagged 4E-BP1 and allowing for time-resolved fluorescence resonance energy transfer (TR-FRET), which correlates 4E-BP1 phosphorylation levels with mTOR kinase activity.
Enzyme reaction buffer can be prepared in deionized water containing 50 mM HEPES (pH 7.5), 0.01% Polysorbate 20, 1 mM EGTA, and 10 mM MnCl2.
Dilutions of the compound to be tested can be prepared in 96-well polypropylene plates (Fisher Scientific, Waltham, Mass.). One row represents a 10-point dose of compound diluted 1:3 in enzyme reaction buffer and 20% dimethyl sulfoxide (DMSO). The top concentration for all compounds is 36 μM. Wells 6 and 12 can serve as the no compound (DMSO only) and high compound controls.
An mTOR substrate solution can prepared in enzyme reaction buffer containing 1600 nM green fluorescent protein tagged eukaryotic translation initiation factor 4E binding protein 1 (GFP-4E-BP1) (Invitrogen, Carlsbad, Calif.) and 28 uM adenosine triphosphate (ATP) (Calbiochem, Gibbstown, N.J.).
mTOR enzyme (Invitrogen, Carlsbad, Calif.) can be diluted in enzyme reaction buffer to a working concentration of 100 ng/mL.
The enzyme assay can be run in 384 well low volume assay plates (Corning, Corning, N.Y.). 2.5 uL of substrate solution containing GFP-4E-BP1 and ATP can be added to appropriate wells in the assay plate followed by 2.5 μL of compound dilutions. 5 μL of appropriately diluted mTOR enzyme can be added and the reaction allowed to proceed for 1 hour at room temperature. Final reagent concentrations in the enzyme assay are 50 ng/mL mTOR, 400 nM GFP-4E-BP1, and 7 μM ATP.
The enzyme assay can be terminated upon the addition of 10 μL of 20 mM EDTA and 4 nM Tb-labeled anti-phospho-4E-BP1 [T46] antibody (Invitrogen, Carlsbad, Calif.). The assay plate can then be incubated at room temperature for 1 hour and results read on a Tecan Safire II plate reader (Tecan, Männedorf, Switzerland).

[2] = molecular target: T2, PI3Kβ (Homo sapiens, UniProt P42338); assay: In vitro PI3 kinase enzyme assay (PI3K ATP loss), beta; assay type: biochemical; conditions: average if run more than once
T2 construct: Full length p110 subunits of PI3K α, β and δ, N-terminally labeled with polyHis tag; polyHis (N); made in house; host or cells: Sf9 insect cells (baculovirus)
T2 sequence (P42338 whole entry): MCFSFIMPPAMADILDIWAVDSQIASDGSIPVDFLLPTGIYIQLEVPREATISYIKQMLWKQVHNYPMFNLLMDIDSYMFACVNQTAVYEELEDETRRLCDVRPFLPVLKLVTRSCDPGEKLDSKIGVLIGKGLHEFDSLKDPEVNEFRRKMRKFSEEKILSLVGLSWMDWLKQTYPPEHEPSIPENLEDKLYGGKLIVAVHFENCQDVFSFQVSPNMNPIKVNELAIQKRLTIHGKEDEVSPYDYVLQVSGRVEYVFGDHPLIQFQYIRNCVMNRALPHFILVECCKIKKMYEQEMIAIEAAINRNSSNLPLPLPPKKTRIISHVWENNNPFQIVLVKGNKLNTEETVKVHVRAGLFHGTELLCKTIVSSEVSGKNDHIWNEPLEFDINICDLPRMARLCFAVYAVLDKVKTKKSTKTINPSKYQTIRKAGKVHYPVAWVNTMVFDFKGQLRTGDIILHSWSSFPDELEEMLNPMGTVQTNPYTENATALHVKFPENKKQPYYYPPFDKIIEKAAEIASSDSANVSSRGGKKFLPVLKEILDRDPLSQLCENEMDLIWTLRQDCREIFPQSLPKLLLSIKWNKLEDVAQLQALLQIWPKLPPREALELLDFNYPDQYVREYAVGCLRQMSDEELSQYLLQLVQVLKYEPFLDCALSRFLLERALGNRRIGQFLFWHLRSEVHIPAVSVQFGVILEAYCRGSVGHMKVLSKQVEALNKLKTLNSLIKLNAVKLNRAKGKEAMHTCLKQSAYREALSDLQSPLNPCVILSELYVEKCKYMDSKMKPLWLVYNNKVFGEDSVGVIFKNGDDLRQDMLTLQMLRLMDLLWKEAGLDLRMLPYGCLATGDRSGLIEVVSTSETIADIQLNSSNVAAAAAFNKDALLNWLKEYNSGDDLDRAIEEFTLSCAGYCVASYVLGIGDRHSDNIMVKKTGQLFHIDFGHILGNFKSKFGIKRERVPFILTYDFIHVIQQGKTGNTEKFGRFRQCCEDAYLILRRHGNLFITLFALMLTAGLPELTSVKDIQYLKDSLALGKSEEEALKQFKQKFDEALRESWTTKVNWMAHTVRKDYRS
T2 sequence (P27986 whole entry partner): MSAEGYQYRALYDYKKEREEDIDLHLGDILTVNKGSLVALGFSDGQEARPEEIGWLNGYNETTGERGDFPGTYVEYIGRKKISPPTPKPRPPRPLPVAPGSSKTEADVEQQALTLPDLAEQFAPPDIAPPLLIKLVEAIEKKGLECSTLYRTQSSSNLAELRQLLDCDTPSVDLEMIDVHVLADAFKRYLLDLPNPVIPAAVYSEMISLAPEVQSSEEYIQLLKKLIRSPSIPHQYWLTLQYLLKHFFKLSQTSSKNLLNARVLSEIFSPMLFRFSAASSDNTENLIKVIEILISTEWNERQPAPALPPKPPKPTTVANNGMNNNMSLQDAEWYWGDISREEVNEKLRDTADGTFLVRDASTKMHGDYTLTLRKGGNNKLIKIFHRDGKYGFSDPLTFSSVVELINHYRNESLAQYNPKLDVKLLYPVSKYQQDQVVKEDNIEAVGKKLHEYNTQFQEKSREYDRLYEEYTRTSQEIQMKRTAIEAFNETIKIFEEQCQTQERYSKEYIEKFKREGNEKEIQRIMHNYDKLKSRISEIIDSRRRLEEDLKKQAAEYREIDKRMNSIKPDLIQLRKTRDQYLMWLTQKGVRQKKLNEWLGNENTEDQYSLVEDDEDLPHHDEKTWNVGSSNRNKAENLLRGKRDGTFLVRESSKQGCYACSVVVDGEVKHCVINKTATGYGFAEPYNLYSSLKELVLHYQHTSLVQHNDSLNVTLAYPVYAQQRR

[3] = tested on: phosphorylation of Akt at Ser473; assay: Cell-based phospho-Akt Ser473 assay (HCT116 cell); conditions: HCT 116 human colon carcinoma cells, IGF-1 stimulated; average
Source text: Cell-Based Phospho-Akt Ser473 Assay (HCT116 Cell)
This assay determines the ability of a compound to inhibit the phosphorylation of […] in Akt using a MSD based sandwich immunoassay (Meso Scale Detection, Meso Scale Discovery (MSD), Gaithersburg, Md.). HCT 116 human colon carcinoma cell lines can be grown in McCoy's 5A growth medium (GIBCO, Carlsbad, Calif.) containing 10% FBS (GIBCO, Carlsbad, Calif.) and X1 Penicillin-streptomycin-glutamine (GIBCO, Carlsbad, Calif.). Prior to the assay, cells can be detached from the culture flask with trypsin, and re-suspended in complete media to give a final concentration of 1.6×10^5 cells per mL. Aliquots (100 μl) of the HCT116 cell suspension can be seeded into each well of a 96 well tissue culture plate to give a final density of 16,000 cells per well. Cells can then be incubated overnight at 37° C.
The following day the cells can be treated with serially diluted test compounds and incubated for 2 hours at 37° C. The culture media on the HCT 116 cells can be replaced with 189 μL McCoys media, supplemented with 0.1% BSA (ICN Biomedicals, Inc., Costa Mesa, Calif.). Compounds can be prepared as either 10 mM or 0.5 mM stock solutions in DMSO, and serially diluted 3 fold in a 10-point dose-response curve to give final concentrations that are 200-fold greater than the desired final test concentration. Aliquots (1 μL) of serially-diluted compounds can be transferred to 96 well tissue culture plates containing the HCT 116 cells. […] As a maximum response control, wells can contain 0.5% DMSO in place of compound. The plates can be mixed at 700 rpm for 2 min to ensure even distribution of the test compound and incubated for 2 hours at 37° C. Cells can then be stimulated with insulin-like growth factor 1 (Sigma, St Louis, Mo.) at final concentration of 100 ng/ml for 15 minutes at 37° C. The media can then be removed and the cells treated with 80 μL cell-lysis buffer (MSD) containing a cocktail of protease and phosphatase inhibitors for one hour at 4° C.
25 μL Cell lysate can then be transferred to pre-blocked MSD assay plates pre-coated with a capture antibody specific for Akt, and the plates can be incubated for 2 hours at room temperature. The cell lysates can then be removed and plates can then be washed four times with 200 μl per well of Tris wash buffer (500 mM Tris, PH 7.5, 1.5 M NaCl, 0.2% Tween-20). Subsequently cells can be incubated for 1 hour at room temperature with a 25 μL solution containing the detection antibody, anti-phospho Akt (Ser 473) labeled with an electrochemiluminescent compound (Meso Scale Discovery SULPHO-TAG™ label, MSD, Gaithersburg, Md.). The detection antibody can be removed and plates can then be washed four times with 200 μL per well of Tris wash buffer. An aliquot of 150 μL of diluted MSD read buffer can then be applied to each well, and the electrochemiluminescent signal can be measured using a MSD SECTOR™ plate reader (Meso Scale Discovery, Gaithersburg, Md.). This instrument measures the intensity of emitted light to determine a quantitative measure of phosphorylated Akt in each well. The dose-response data obtained with each compound can be analyzed and the IC50 inhibition of Akt phosphorylation at Ser473 can be calculated.
Activity data for the compounds tested in the PI3K cell based Akt assay is provided in Table 1 under the column heading HCT116 Cell.

T1 sequence (P42345 1360-2549 limits assumed): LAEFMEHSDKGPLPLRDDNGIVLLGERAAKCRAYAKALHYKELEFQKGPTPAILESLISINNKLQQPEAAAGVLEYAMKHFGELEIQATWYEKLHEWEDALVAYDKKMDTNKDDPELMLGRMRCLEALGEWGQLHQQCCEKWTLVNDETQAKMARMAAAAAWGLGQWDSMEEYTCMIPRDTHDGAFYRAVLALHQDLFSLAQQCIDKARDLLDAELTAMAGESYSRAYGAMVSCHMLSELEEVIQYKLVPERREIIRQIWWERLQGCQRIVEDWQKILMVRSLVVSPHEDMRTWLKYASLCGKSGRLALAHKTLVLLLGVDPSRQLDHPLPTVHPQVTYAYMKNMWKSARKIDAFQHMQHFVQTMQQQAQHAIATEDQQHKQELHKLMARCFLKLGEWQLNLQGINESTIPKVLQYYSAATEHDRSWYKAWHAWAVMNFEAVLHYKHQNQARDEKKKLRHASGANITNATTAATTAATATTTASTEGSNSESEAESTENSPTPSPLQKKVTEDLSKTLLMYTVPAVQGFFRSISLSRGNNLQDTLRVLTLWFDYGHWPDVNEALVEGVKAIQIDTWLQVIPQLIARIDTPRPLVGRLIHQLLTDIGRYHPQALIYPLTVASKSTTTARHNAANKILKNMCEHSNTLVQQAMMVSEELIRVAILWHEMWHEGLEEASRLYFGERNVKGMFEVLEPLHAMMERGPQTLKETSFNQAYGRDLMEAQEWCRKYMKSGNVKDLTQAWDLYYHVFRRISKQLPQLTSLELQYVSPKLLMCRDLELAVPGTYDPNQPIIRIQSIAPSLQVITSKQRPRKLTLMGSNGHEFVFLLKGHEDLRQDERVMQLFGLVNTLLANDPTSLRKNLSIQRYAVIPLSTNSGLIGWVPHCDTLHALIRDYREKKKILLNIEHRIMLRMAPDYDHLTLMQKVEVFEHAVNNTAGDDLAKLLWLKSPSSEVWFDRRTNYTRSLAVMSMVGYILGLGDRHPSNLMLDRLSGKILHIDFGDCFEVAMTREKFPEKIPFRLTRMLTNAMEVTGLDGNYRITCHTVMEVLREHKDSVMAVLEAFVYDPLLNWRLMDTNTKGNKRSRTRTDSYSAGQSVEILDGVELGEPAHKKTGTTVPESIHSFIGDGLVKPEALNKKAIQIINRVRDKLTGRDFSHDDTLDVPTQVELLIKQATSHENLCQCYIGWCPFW

| Structure (SMILES) | IC50 [1] | IC50 [2] | IC50 [3] |
| --- | --- | --- | --- |
| CN(C)c1ccnc2ccc(-c3cnc(Cl)c(NS(=O)(=O)c4ccc(F)cc4)c3)cc12 [Example 97, N-(2-chloro-5-(4-(dimethylamino)-6-quinolinyl)-3-pyridinyl)-4-fluorobenzenesulfonamide] | 0.111 µM | – | – |
| COCCNc1cnc2ccc(-c3cnc(Cl)c(NS(=O)(=O)c4ccc(F)cc4)c3)cc2n1 [Example 73, N-(2-chloro-5-(3-((2-methoxyethyl)amino)-6-quinoxalinyl)-3-pyridinyl)-4-fluorobenzenesulfonamide] | – | 0.0334 µM | 0.0595 µM |
| O=S(=O)(Nc1cc(-c2ccc3nccc(N4CCCCC4)c3c2)cnc1Cl)c1ccc(F)cc1 [Example 24, N-(2-chloro-5-(4-(1-piperidinyl)-6-quinolinyl)-3-pyridinyl)-4-fluorobenzenesulfonamid] | – | 0.0184 µM | 0.159 µM |
| O=S(=O)(Nc1cc(-c2ccc3ncc(N4C[C@H]5CC[C@H](CC5)C4)nc3c2)cnc1Cl)c1ccc(F)cc1 [Example 62, N-(5-(3-(3-azabicyclo[3.2.2]non-3-yl)-6-quinoxalinyl)-2-chloro-3-pyridinyl)-4-fluorobenzenesulfonamide] | – | 0.343 µM | 0.263 µM |
| COCCNc1ccnc2ccc(-c3cnc(Cl)c(NS(=O)(=O)c4ccc(F)cc4)c3)cc12 [Example 98, N-(2-chloro-5-(4-((2-methoxyethyl)amino)-6-quinolinyl)-3-pyridinyl)-4-fluorobenzenesulfonamide] | 1.16 µM | – | – |
| O=S(=O)(Nc1cc(-c2ccc3nccc(N4CCOCC4)c3c2)cnc1Cl)c1ccc(F)cc1 [Example 1, N-(2-chloro-5-(4-(4-morpholinyl)-6-quinolinyl)-3-pyridinyl)-4-fluorobenzenesulfonamide] | – | – | 0.0174 µM |
| CC(C)N1CCN(c2ccnc3ccc(-c4cnc(Cl)c(NS(=O)(=O)c5ccc(F)cc5)c4)cc23)CC1 [Example 25, N-(2-chloro-5-(4-(4-(1-methylethyl)-1-piperazinyl)-6-quinolinyl)-3-pyridinyl)-4-fluorobenzenesulfonamide] | – | 0.0119 µM | 0.0189 µM |
| O=S(=O)(Nc1cc(-c2ccc3nccnc3c2)cnc1Cl)c1ccc(F)cc1 [Example 6, N-(2-chloro-5-(6-quinoxalinyl)-3-pyridinyl)-4-fluorobenzenesulfonamide] | – | 0.0254 µM | 1.59 µM |
| O=S(=O)(Nc1cc(-c2ccc3ncc(N4CCOCC4)nc3c2)cnc1Cl)c1ccc(F)cc1 [Example 20, N-(2-chloro-5-(3-(4-morpholinyl)-6-quinoxalinyl)-3-pyridinyl)-4-fluorobenzenesulfonamide] | – | – | 0.0062 µM |
| O=S(=O)(Nc1cc(-c2ccc3nccc(Cl)c3c2)cnc1Cl)c1ccc(F)cc1 [Example 2, N-(2-chloro-5-(4-chloro-6-quinolinyl)-3-pyridinyl)-4-fluorobenzenesulfonamide] | – | 0.0093 µM | 0.109 µM |
| COCCN(C)c1cnc2ccc(-c3cnc(Cl)c(NS(=O)(=O)c4ccc(F)cc4)c3)cc2n1 [Example 55, N-(2-chloro-5-(3-((2-methoxyethyl)(methyl)amino)-6-quinoxalinyl)-3-pyridinyl)-4-fluorobenzenesulfonamide] | – | 0.0207 µM | 0.064 µM |
| CN(Cc1ccccc1)c1cnc2ccc(-c3cnc(Cl)c(NS(=O)(=O)c4ccc(F)cc4)c3)cc2n1 [Example 65, N-(5-(3-(benzyl(methyl)amino)-6-quinoxalinyl)-2-chloro-3-pyridinyl)-4-fluorobenzenesulfonamide] | – | 0.0303 µM | 0.279 µM |
| O=S(=O)(Nc1cc(-c2ccc3ncc(NCCc4ccccc4)nc3c2)cnc1Cl)c1ccc(F)cc1 [Example 64, N-(2-chloro-5-(3-((2-phenylethyl)amino)-6-quinoxalinyl)-3-pyridinyl)-4-fluorobenzenesulfonamide] | – | 0.0597 µM | 0.188 µM |
| COC1CCN(c2cnc3ccc(-c4cnc(Cl)c(NS(=O)(=O)c5ccc(F)cc5)c4)cc3n2)CC1 [Example 69, N-(2-chloro-5-(3-(4-methoxy-1-piperidinyl)-6-quinoxalinyl)-3-pyridinyl)-4-fluorobenzenesulfonamide] | – | 0.0344 µM | 0.0526 µM |
| O=S(=O)(Nc1cc(-c2ccc3ncc(NCC4CCCCC4)nc3c2)cnc1Cl)c1ccc(F)cc1 [Example 70, N-(2-chloro-5-(3-((cyclohexylmethyl)amino)-6-quinoxalinyl)-3-pyridinyl)-4-fluorobenzenesulfonamide] | – | 0.0532 µM | 0.151 µM |
| COc1ncccc1-c1ccnc2ccc(-c3cnc(Cl)c(NS(=O)(=O)c4ccc(F)cc4)c3)cc12 [Example 35, N-(2-chloro-5-(4-(2-methoxy-3-pyridinyl)-6-quinolinyl)-3-pyridinyl)-4-fluorobenzenesulfonamide] | – | 0.0212 µM | 0.0548 µM |
| COc1nc(-c2cnc(Cl)c(NS(=O)(=O)c3ccc(F)cc3)c2)cc2cccnc12 [Example 76, N-(2-Chloro-5-(8-methoxy-1,7-naphthyridin-6-yl)pyridin-3-yl)-4-fluorobenzenesulfonamide] | – | – | 0.806 µM |
| O=S(=O)(Nc1cc(-c2ccc3ncc(NCCN4CCCCC4)nc3c2)cnc1Cl)c1ccc(F)cc1 [Example 61, N-(2-chloro-5-(3-((2-(1-piperidinyl)ethyl)amino)-6-quinoxalinyl)-3-pyridinyl)-4-fluorobenzenesulfonamide] | – | 0.0155 µM | 0.0515 µM |
| O=S(=O)(Nc1cc(-c2ccc3ncccc3n2)cnc1Cl)c1ccc(F)cc1 [Example 41, N-(2-chloro-5-(1,5-naphthyridin-2-yl)-3-pyridinyl)-4-fluorobenzenesulfonamide] | – | 0.0597 µM | 0.629 µM |
| COCCOc1ccnc2ccc(-c3cnc(Cl)c(NS(=O)(=O)c4ccc(F)cc4)c3)cc12 [Example 31, N-(2-chloro-5-(4-(2-methoxyethoxy)-6-quinolinyl)-3-pyridinyl)-4-fluorobenzenesulfonamide] | – | 0.0144 µM | 0.0252 µM |
